Several values for one entry are separate records, joined by “and”; a condition that tells them apart may be missing. Equal entries are not always repeated.
Tests used:
[1] = system: carrageenan induced rat paw oedema; experiment: rat carrageenan-induced foot paw oedema model; type: in vivo; settings: for Mean % increase in paw weight ± SEM / % Inhibition of paw oedema from control group: 2 h after carrageenan; for Mean % increase in paw weight ± SEM: control group 165.6 ± 1.6; for % Inhibition of paw oedema from control group: single dose screen (Table 1)
Experimental: Anti-inflammatory assessment of the newly synthesised compounds was carried out using an in vivo rat carrageenan-induced foot paw oedema model, as reported previously[16]^,[17].

COX-1 = target: T1, COX-1 (Ovis aries, UniProt P05979); experiment: colorimetric COX (ovine) inhibitor screening assay kit; type: biochemical; settings: ovine COX-1, mean of two determinations
T1 construct: purchased Cayman Chemicals Inc., Ann Arbour, MI
T1 sequence (P05979 25-600): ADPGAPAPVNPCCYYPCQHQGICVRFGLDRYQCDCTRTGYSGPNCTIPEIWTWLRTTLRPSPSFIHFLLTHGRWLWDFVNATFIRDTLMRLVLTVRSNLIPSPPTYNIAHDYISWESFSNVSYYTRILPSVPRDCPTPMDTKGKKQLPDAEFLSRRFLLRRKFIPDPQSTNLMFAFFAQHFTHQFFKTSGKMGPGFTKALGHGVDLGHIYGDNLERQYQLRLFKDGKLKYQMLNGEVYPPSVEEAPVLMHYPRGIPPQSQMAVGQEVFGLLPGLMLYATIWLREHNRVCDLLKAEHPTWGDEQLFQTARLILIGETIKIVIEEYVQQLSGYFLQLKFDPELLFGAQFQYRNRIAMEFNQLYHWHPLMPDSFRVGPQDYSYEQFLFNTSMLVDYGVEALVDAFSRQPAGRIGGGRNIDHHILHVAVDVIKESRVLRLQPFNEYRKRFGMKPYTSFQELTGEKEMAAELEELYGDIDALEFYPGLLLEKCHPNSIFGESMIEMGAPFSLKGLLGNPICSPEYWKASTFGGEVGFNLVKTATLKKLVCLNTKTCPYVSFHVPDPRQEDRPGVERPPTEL
Description: (§1) To determine the relative ability of the test compounds and reference drugs to inhibit COX-1/COX-2 isozymes, we used the colorimetric COX (ovine) inhibitor screening assay kit (Cayman Chemicals Inc., Ann Arbour, MI), according to the manufacturer’s instructions[3]^,[10]^,[11]^,[20].

COX-2 = target: T2, COX-2 (Ovis aries, UniProt P79208); experiment: as above; type: biochemical; settings: for SI, selectivity index (COX-1 IC50/COX-2 IC50): ovine COX-1/COX-2; for IC50: ovine COX-2, mean of two determinations
T2 construct: purchased Cayman Chemicals Inc., Ann Arbour, MI
T2 sequence (P79208 17-603): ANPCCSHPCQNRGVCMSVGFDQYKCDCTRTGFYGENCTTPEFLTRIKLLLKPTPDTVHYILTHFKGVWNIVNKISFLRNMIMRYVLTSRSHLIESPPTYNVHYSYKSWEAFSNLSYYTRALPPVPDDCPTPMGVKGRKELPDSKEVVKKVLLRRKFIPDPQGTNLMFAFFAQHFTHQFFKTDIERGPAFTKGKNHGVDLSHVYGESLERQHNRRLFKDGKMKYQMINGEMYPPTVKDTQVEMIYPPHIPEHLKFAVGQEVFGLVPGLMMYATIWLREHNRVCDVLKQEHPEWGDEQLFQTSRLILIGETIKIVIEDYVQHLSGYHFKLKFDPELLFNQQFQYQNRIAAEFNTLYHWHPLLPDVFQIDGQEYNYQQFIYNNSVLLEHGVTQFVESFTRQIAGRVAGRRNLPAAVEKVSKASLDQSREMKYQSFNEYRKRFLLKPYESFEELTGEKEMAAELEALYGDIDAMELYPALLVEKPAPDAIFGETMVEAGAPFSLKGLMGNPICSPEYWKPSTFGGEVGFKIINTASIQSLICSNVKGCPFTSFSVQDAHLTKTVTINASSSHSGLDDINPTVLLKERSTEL
Description: as §1

HL-60(TB) (Leukaemia) = experiment: NCI 59 cell line panel, single dose; type: cell-based; settings: one dose 10.0 μM
[2] = system: NCI-H522 (NSC Lung Cancer); experiment: NCI 59 cell line panel, single dose; type: cell-based; settings: NCI-H522, one dose 10.0 μM
mice = experiment: Ulcerogenicity measurement; type: in vivo
Experimental: Ulcerogenicity was evaluated according to a previously reported method[6]^a,[17]^,[18]. The number and total length of the ulcers for each animal were measured and their averages were calculated and used as the ulcer indices.

TK-10 (Renal Cancer) = experiment: NCI 59 cell line panel, single dose; type: cell-based; settings: TK-10, one dose 10.0 μM
59 cancer cell lines = experiment: full NCI 59 cell line panel assay, single dose; type: cell-based; settings: one dose 10.0 μM, 59 cell lines
HOP-92 (NSC Lung Cancer) = experiment: NCI 59 cell line panel, single dose; type: cell-based; settings: HOP-92, one dose 10.0 μM
UO-31 (Renal Cancer) = experiment: NCI 59 cell line panel, single dose; type: cell-based; settings: UO-31, one dose 10.0 μM
PC-3 (Prostate Cancer) = experiment: NCI 59 cell line panel, single dose; type: cell-based; settings: PC-3, one dose 10.0 μM
[3] = system: NCI-H322M (NSC Lung Cancer); experiment: NCI 59 cell line panel, single dose; type: cell-based; settings: one dose 10.0 μM

IC50 (COX-1) [nM]	SI, selectivity index (COX-1 IC50/COX-2 IC50) (COX-2)	IC50 (COX-2) [nM]	SMILES	Mean % increase in paw weight ± SEM [1] [%]	% Inhibition of paw oedema from control group [1]	GI% [2] [%]	PCE (positive cytotoxic effect: cell lines with growth inhibition >10% / total number of cell lines) (59 cancer cell lines)	also measured
> 50000	>277.8	180	NS(=O)(=O)c1cccc(N2C(=O)c3ccccc3C2=O)c1 [Compound 4]	41.0 ± 0.2	77.8% and 77.8 ± 0.6%	16.0	3/59	Percentage inhibition of paw oedema from control group ([1]; dose 45 mg/kg): 65.0%; Percentage inhibition of paw oedema from control group ([1]; dose 65 mg/kg): 77.8%; Percentage inhibition of paw oedema from control group ([1]; dose 80 mg/kg): 86.2%; ED50 ([1]; from three graded doses (45, 65, 80 mg/kg)): 45.3 mg/kg; GI% (HL-60(TB) (Leukaemia)): 18%; Average number of ulcers (mice; mice): 6; Mean sum of lengths of elongated ulcer (mice; mice, ± SEM): 4.7 ± 0.54 mm; level of ulcerogenic activity (in words) (mice; relative to diclofenac and celecoxib): ulcerogenic level similar to celecoxib and less than that of diclofenac; GI% (TK-10 (Renal Cancer)): 11%
> 50000	>55.6	900	Cc1ccc2c(c1)C(=O)N(c1cccc(S(N)(=O)=O)c1)C2=O [Compound 5, 3-(5-Methyl-1,3-dioxoisoindolin-2-yl)benzenesulfonamide]	78.1 ± 0.7	57.7% and 57.7 ± 0.5%	11	5/59	GI% (HOP-92 (NSC Lung Cancer)): 11%; GI% (UO-31 (Renal Cancer)): 17%; GI% (PC-3 (Prostate Cancer)): 11%; melting point: 225 to 226 °C; GI% [3]: 11%
